Source: US4410525A, “Alkoxy pyrazole derivatives and compositions” (Establissements Nativelle S.A., priority 1981, dated 1983)
Where two headings read alike, the source gives them in different places.

Assays:
[1] = Acute toxicity (lethal dose 50) in the mouse; details: in vivo
Excerpt: The acute toxicity of the deriatives of the invention were studied by oral administration (P.O) to the mouse (10 animals, 5 males and 5 females per dose) and calculation of the lethal dose 50 (LD 50) in accordance with the method of Litchfield and Wilcoxon (J. Pharmacol., 96, 99-113 (1949)). Table 1 gives the LD 50 values of the derivatives of the invention.
In certain cases, the LD 50 was also studied after intraperitoneal injection (I.P.) of the derivatives.

[2] = system: isolated guinea pig auricle; test: Maximum stimulation frequency test on isolated guinea pig auricle; details: Cavia porcellus; 10 mg/l; read-out: Δ% MFS (decrease of the maximum frequency followed)
Protocol: The maximum frequency test carried out studied the maximum stimulation frequency which can cause contraction of an isolated guinea pig auricle placed in a solution containing a derivative of the invention. The measurement was carried out before (control period) and then after introduction of the derivative into the solution.

[3] = system: anoxic ventricular fibrillation in mice; test: Cardiac antifibrillatory activity on the mouse (Lawson test); format: in vivo; details: ip, intraperitoneal, 10 minutes before chloroform, read-out: ED 50 (protects half the mice against anoxic ventricular fibrillation)
Protocol: Cardiac antifibrillatory activity of the derivatives of the invention has been verified on the mouse using the Lawson test, in accordance with the method described by J. W. Lawson, J. Pharmacol. Exp. Therp. 160, 22-31 (1968), and C. Narcisse et al., Ann. Pharm. Fr. 37, 325-330 (1979).
The mice (20 per dose) received an intraperitoneal injection of the derivative 10 minutes before being placed in a chloroform saturated atmosphere. As soon as respiratory arrest occurred, the thorax was opened (5 to 10 seconds) and the state of the heart was checked: presence or absence of ventricular fibrillation. The efficacy dose 50 (ED 50) of the derivative being studied is the dose which protects half the mice against anoxic ventricular fibrillation.

[4] = system: ventricular arrhythmias induced by aconitine in the anesthetized rat; test: Antiarrhythmic test with aconitine on the rat; format: in vivo
Protocol: The derivatives of the invention were used in the test with aconitine on the rat. For this test, the anesthetized rat was intoxicated by an intravenous perfusion of aconitine (solution of aconitine nitrate: 15 mg/l; speed of perfusion: 0.4 ml/min) while its electrocardiogram was recorded permanently. During perfusion at constant speed, the time necessary for the appearance of ventricular arrhythmias, successively ventricular extrasystoles (ESV), ventricular tachycardium (TV) and ventricular fibrillation (FV) was measured.
The animals were divided into a control group (untreated) and treated group (different doses). The results are expressed as a percentage of prolonging the time of the appearance of the arrhythmias in the treated groups in relation to the control group. This prolongation of arrhythmia appearance time therefore corresponds to myocardiac protection against the arrhythmic effects of aconitine.

[5] = system: rabbit cornea; test: Local contact anesthesia on the rabbit cornea; format: in vivo; details: solution at 0.25% or 1% by weight, eyewash instillation
Excerpt: For example, the derivatives described in Examples 2, 3, 4, 6, 7 and 9 are local anesthetics (100% anesthesia) in a solution at 0.25% or 1% by weight.

[6] = system: anesthetized dog; test: Hemodynamic effects on the anesthetized dog; format: in vivo; details: anesthetized dog, i.v.
Protocol: Cardiovascular tolerance was studied on the isolated guinea pig auricle, on the anesthetized rat and on the anesthetized dog.
On the anesthetized dog, the results obtained with respect to hemodynamic tolerance are summarized in Table 2 below which indicates the percentages of variation of the hemodynamic parameters in relation to the pre-treatment control period for the derivatives of Examples 2 and 4.
The parameters were recorded by means of:
Catheters connected to pressure sensors (arterial pressure, left ventricular pressure and its first derivative dp/dt);
Electromagnetic flowmeter on the aorta (aortic flow);
Strain gauge placed on the left ventricular myocardium (force of myocardiac contraction).
The derivatives were injected intraveneously, one dose approximately every 30 minutes and their effects were measured 20 minutes after the completion of the injection (length of the injection 2 minutes).

[7] = ip, intraperitoneal (I.P.), read-out: LD 50 I.P.
[8] = oral (P.O.), 5 males and 5 females per dose, read-out: LD 50 P.O.
[9] = read-out: Prolongation of time of appearance of ventricular extrasystoles (ESV)
[10] = read-out: Prolongation of time of appearance of ventricular fibrillation (FV)
[11] = read-out: Prolongation of time of appearance of ventricular tachycardium (TV)

## CN(C)CCCOc1cc(-c2ccc(Cl)cc2)n[nH]1 [Example 1, 3-p-Chlorophenyl-5-dimethylaminopropoxy-pyrazole]
[1]; [7]
  LD50: 250 to 500 mg/kg
[1]; [8]
  LD50: 1000 mg/kg
[2]
  inhibition at 10 µg/mL: 30%

## c1ccc(-c2cc(OCCN3CCOCC3)[nH]n2)cc1 [Example 5, 3-Phenyl-5-morpholinoethoxy-pyrazole]
[1]; [8]
  LD50: 1000 mg/kg
[2]
  inhibition at 10 µg/mL: 12%
[3]
  ED50: 79 mg/kg

## Clc1ccc(-c2cc(OCCN3CCCCC3)[nH]n2)cc1 [Example 6]
[1]; [8]
  LD50: 500 mg/kg
[2]
  inhibition at 10 µg/mL: 46%
[4]; [9]
  change in vivo at 3 mg/kg: 13%
[4]; [10]
  change in vivo at 3 mg/kg: 18%
[4]; [11]
  change in vivo at 3 mg/kg: 21%
[5]
  local anesthesia: 100%

## CN(C)CCCOc1cc(-c2ccccc2)[nH]n1 [Example 8]
[1]; [8]
  LD50: 1000 mg/kg

## Cc1c(-c2ccccc2)n[nH]c1OCCN1CCCCC1 [Example 11]
[1]; [7]
  LD50: 184 mg/kg
[1]; [8]
  LD50: 250 to 500 mg/kg
[2]
  inhibition at 10 µg/mL: 52%
[4]; [9]
  change in vivo at 10 mg/kg: 10%
[4]; [10]
  change in vivo at 10 mg/kg: 18%
[4]; [11]
  change in vivo at 10 mg/kg: 11%
[3]
  ED50: 42.5 mg/kg

## c1ccc(-c2cc(OCCN3CCCC3)[nH]n2)cc1 [Example 12]
[1]; [8]
  LD50: 500 to 1000 mg/kg
[2]
  inhibition at 10 µg/mL: 35%

## c1ccc(-c2cc(OCCCN3CCCCC3)[nH]n2)cc1 [Example 13]
[1]; [8]
  LD50: 125 to 250 mg/kg
[2]
  inhibition at 10 µg/mL: 44%

## Cc1c(-c2ccccc2)n[nH]c1OCCCN1CCCCC1 [Example 14]
[1]; [8]
  LD50: 250 mg/kg
[6]
  Cardiac frequency (result in words): drops moderately
  Systolic arterial pressure (result in words): drops moderately
  force of ventricular myocardiac contractions (result in words): does not vary significantly
[2]
  inhibition at 10 µg/mL: 40%
[3]
  ED50: 62 mg/kg

## Cc1c(-c2ccccc2)n[nH]c1OCCCN(C)C [Example 15]
[1]; [8]
  LD50: 500 to 1000 mg/kg
[2]
  inhibition at 10 µg/mL: 40%

## Cc1c(-c2ccc(Cl)cc2)n[nH]c1OCCN1CCOCC1 [Example 16]
[1]; [7]
  LD50: 125 to 250 mg/kg
[1]; [8]
  LD50: 500 to 1000 mg/kg
[2]
  inhibition at 10 µg/mL: 28%

## Cc1c(-c2ccc(Cl)cc2)n[nH]c1OCCCN(C)C [Example 17]
[1]; [7]
  LD50: 250 to 500 mg/kg
[1]; [8]
  LD50: 500 to 1000 mg/kg
[2]
  inhibition at 10 µg/mL: 32%

## Cc1c(-c2ccc(Cl)cc2)n[nH]c1OCCN1CCCC1 [Example 18]
[1]; [8]
  LD50: 750 mg/kg
[2]
  inhibition at 10 µg/mL: 45%
[4]; [9]
  change in vivo at 10 mg/kg: 2%
[4]; [10]
  change in vivo at 10 mg/kg: 0%
[4]; [11]
  change in vivo at 10 mg/kg: 6%

## Cc1c(-c2ccc(Cl)cc2)n[nH]c1OCCCN1CCCCC1 [Example 19]
[1]; [7]
  LD50: 62 to 125 mg/kg
[1]; [8]
  LD50: 250 mg/kg
[6]
  Cardiac frequency (result in words): does not change
  Systolic arterial pressure (result in words): drops moderately
  force of ventricular myocardiac contractions (result in words): decreases
[6]; cumulative dose
  cumulative dose at which a 20% drop of cardiac flow is reached: greater than 4 mg/kg
[2]
  inhibition at 10 µg/mL: 52%
[4]; [9]
  change in vivo at 10 mg/kg: 15%
[4]; [10]
  change in vivo at 10 mg/kg: 35%
[4]; [11]
  change in vivo at 10 mg/kg: 15%
[3]
  ED50: 21.5 mg/kg
